We go through seven compounds from patent EP4745135A1 (Gluetacs Therapeutics (Shanghai) Co., Ltd., priority 2023, dated 2025).

One assay deals with T1, CK1α (Homo sapiens, UniProt P48729+Q96SW2).
T1 construct: effects of the compounds of the present disclosure on the expression of target proteins in cells; endogenous in cells; host or cells: human PBMCs (Milecell Biotechnologies)
The assay can be described thus: Western blot, degradation of substrate protein in hPBMCs. It is filed as cell-based. The settings on record: Western blot, 24 hours of compound treatment, compounds tested at 50 nM and 500 nM (concentration for the table not stated). In general terms: A western blot detects proteins with antibodies after separation by electrophoresis.

Another assay concerns the target T2, IKZF1 (Homo sapiens, UniProt Q13422+Q96SW2).
T2 construct: effects of the compounds of the present disclosure on the expression of target proteins in cells; endogenous in cells; host or cells: human PBMCs (Milecell Biotechnologies)
The description is as above. The format is cell-based. The following applies: Western blot, 24 hours of compound treatment, compounds tested at 50 nM and 500 nM (concentration for the table not stated).

Another assay addresses T3, IKZF2 (Homo sapiens, UniProt Q96SW2+Q9UKS7).
T3 construct: effects of the compounds of the present disclosure on the expression of target proteins in cells; endogenous in cells; host or cells: human PBMCs (Milecell Biotechnologies)
Described as above. The settings on record: Western blot, 24 hours of compound treatment, compounds tested at 50 nM and 500 nM (concentration for the table not stated). It is filed as cell-based.

Another assay addresses T4, IKZF3 (Homo sapiens, UniProt Q96SW2+Q9UKT9).
T4 construct: effects of the compounds of the present disclosure on the expression of target proteins in cells; endogenous in cells; host or cells: human PBMCs (Milecell Biotechnologies)
The description is as above. The following applies: Western blot, 24 hours of compound treatment, compounds tested at 50 nM and 500 nM (concentration for the table not stated). It is filed as cell-based.

Another assay deals with T5, WEE1 (Homo sapiens, UniProt P30291+Q96SW2).
T5 construct: effects of the compounds of the present disclosure on the expression of target proteins in cells; endogenous in cells; host or cells: human PBMCs (Milecell Biotechnologies)
The assay is described as above. The following applies: Western blot, 24 hours of compound treatment, compounds tested at 50 nM and 500 nM (concentration for the table not stated). The format is cell-based.

A further assay has as its system GSPT1. Described as above. The format is cell-based, Human. The following applies: Western blot, 24 hours of compound treatment, compounds tested at 50 nM and 500 nM (concentration for the table not stated).
The target of assay [1] is T6, human Cereblon WT GST-tagged protein (Homo sapiens, UniProt Q96SW2).
T6 construct: purchased CISBIO 64BDCRBNPEH
The assay can be described thus: CRBN-binding affinity, HTRF (CEREBLON BINDING kit). The following applies: for inhibition at 0.5 µM: read-out: Inhibition Rate at 0.5 µM (%); for inhibition at 2 µM: read-out: Inhibition Rate at 2 µM (%).

The subject of assay [2] is Human multiple myeloma cell (MM.1S). Kind of assay: Tumor cell proliferation inhibition (CellTiter-Meiluncell luminescent cell viability assay). The following applies: for inhibition at 0.01 µM / inhibition at 0.5 µM: Homo sapiens, MM1.S, 96 h; for inhibition at 0.01 µM: read-out: Inhibition Rate at 10 nM (%); for inhibition at 0.5 µM: read-out: Inhibition Rate at 500 nM (%).

Assay [3] relates to Human acute T lymphocytic leukemia cell (Molt4). The assay is described as above. The following applies: MOLT-4, 96 h; for inhibition at 0.01 µM: read-out: Inhibition Rate at 10 nM (%); for inhibition at 0.5 µM: read-out: Inhibition Rate at 500 nM (%).
Procedure: The tumor cells used herein were cultured in a cell culture medium listed in table 2 at 37°C in an incubator with 5% CO2. Prior to experimentation, all cell lines used were correctly identified by STR profiling, and tested negative for mycoplasma contamination using a mycoplasma detection kit through routine screenings.
The IC50 values of the compounds of the present disclosure (including the compounds in Table 1 and Examples) were determined using the CellTiter-Meiluncell Luminescent Cell Viability Assay Kit from Dalian Meilun Biotech Co., Ltd. The detailed procedure is as follows: Tumor cells were seeded in 96-well cell culture plates at the densities specified in Table 3. On the following day, the test compounds of the present disclosure were subjected to serial dilution. The dilution can be performed according to one of the following two methods: • (1) The first dilution method: The test compounds of the present disclosure (including the compounds in Table 1 and Examples) were subjected to 5-fold serial dilutions starting from a highest concentration of 2000 µM, resulting in a total of 9 concentrations from high to low (2000, 400, 80, 16, 3.2, 0.64, 0.128, 0.0256, 0.00512 µM). Subsequently, 0.5 µL of the test compound dilution was transferred into the 96-well plate containing the cells, with each well containing 100 µL of cell culture medium. […] Into the 96-well plate, the diluted test compounds and corresponding detection reagents were added, resulting in final test compound concentrations of 500 nM and 10 nM, respectively. The experimental procedure is described below using the diluted 2 µM test compound as an example.
0.5 µL of the aforementioned diluted compound of the present disclosure (including the compounds in Table 1 and Examples) was added to the seeded cells in 100 µL of medium, yielding a final test compound concentration of 10 nM. After the cells were treated with the compounds of the present disclosure for a specified period, the cell viability assay reagent was added to the culture medium according to the kit's instructions to determine cell viability. […] All controls were treated using the same procedure as the compounds of the present disclosure. The growth inhibition curves for the compounds of the present disclosure were plotted using Prism GraphPad software, and the IC50 values were calculated therefrom.
Assay [4] has as its system Human myeloid monocytic leukemia cell (MV-4-11). The description is as above. The settings on record: MV4-11, 96 h; for inhibition at 0.01 µM: read-out: Inhibition Rate at 10 nM (%); for inhibition at 0.5 µM: read-out: Inhibition Rate at 500 nM (%).

Molecules are shown by their SMILES.

T1 sequence (P48729 whole entry): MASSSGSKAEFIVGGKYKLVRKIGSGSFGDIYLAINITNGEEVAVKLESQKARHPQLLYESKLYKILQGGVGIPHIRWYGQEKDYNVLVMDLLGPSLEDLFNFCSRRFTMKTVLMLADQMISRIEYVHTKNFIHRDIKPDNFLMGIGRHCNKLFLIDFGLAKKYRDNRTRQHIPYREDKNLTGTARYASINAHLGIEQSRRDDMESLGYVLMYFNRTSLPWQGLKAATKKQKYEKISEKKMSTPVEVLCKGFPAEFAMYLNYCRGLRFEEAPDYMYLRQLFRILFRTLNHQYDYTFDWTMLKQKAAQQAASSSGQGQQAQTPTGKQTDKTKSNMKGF
T1 sequence (Q96SW2 whole entry): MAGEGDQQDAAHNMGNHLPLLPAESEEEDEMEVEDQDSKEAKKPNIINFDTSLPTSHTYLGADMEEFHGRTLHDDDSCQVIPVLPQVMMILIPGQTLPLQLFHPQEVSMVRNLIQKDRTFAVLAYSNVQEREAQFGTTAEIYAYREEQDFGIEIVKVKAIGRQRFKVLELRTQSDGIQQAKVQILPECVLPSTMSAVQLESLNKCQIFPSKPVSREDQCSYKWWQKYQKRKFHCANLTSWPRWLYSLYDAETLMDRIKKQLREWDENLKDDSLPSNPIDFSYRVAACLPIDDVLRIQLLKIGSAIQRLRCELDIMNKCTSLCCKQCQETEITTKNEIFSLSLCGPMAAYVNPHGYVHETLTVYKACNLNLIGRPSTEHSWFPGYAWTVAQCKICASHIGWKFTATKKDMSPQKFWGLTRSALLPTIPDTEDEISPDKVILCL
T1 sequence (Q16531 whole entry partner): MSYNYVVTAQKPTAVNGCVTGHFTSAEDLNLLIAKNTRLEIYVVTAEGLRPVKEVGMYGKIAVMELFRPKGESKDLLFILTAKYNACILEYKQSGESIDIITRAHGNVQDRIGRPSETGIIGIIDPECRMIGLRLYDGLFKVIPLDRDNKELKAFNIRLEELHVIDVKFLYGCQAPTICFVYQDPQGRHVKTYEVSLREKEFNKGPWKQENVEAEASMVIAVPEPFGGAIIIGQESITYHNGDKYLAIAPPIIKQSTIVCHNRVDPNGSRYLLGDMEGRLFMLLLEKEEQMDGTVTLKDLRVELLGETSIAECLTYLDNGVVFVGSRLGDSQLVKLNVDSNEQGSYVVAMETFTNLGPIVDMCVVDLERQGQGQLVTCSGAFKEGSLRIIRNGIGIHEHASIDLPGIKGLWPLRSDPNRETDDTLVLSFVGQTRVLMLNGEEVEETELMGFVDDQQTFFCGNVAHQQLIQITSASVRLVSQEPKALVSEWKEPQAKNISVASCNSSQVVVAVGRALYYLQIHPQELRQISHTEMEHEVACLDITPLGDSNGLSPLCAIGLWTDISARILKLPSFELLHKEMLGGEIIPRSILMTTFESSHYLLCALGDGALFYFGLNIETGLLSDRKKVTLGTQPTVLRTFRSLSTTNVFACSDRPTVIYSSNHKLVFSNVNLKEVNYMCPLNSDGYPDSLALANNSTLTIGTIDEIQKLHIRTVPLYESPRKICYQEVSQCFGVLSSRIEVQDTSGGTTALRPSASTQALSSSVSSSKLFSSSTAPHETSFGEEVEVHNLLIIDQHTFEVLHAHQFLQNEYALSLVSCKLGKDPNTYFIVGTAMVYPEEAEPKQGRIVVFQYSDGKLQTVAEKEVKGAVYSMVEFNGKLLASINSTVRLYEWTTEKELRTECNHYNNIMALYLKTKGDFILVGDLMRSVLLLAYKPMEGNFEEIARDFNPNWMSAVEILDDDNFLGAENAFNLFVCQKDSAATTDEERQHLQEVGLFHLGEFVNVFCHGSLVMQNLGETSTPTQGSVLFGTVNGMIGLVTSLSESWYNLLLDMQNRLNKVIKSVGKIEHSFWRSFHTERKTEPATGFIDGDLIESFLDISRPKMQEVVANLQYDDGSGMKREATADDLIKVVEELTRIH
T5 sequence (P30291 whole entry): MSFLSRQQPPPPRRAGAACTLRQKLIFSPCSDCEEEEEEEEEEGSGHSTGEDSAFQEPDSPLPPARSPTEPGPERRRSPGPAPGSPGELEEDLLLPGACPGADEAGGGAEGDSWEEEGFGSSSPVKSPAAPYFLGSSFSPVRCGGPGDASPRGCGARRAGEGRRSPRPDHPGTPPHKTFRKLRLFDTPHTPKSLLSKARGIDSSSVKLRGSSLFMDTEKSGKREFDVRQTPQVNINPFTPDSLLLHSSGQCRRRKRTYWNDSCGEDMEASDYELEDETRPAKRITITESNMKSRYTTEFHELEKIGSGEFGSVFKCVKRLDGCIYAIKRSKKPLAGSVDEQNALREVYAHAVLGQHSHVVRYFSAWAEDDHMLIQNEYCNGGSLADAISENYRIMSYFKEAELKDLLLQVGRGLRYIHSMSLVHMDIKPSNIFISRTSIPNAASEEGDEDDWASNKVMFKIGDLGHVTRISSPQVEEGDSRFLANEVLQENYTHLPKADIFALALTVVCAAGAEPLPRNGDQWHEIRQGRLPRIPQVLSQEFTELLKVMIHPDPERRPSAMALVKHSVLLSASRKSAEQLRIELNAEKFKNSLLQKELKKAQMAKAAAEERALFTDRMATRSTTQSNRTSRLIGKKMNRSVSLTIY
T5 sequence (Q96SW2 whole entry): as the sequence (Q96SW2 whole entry) above
T5 sequence (Q16531 whole entry partner): as the sequence (Q16531 whole entry partner) above
T4 sequence (Q9UKT9 whole entry): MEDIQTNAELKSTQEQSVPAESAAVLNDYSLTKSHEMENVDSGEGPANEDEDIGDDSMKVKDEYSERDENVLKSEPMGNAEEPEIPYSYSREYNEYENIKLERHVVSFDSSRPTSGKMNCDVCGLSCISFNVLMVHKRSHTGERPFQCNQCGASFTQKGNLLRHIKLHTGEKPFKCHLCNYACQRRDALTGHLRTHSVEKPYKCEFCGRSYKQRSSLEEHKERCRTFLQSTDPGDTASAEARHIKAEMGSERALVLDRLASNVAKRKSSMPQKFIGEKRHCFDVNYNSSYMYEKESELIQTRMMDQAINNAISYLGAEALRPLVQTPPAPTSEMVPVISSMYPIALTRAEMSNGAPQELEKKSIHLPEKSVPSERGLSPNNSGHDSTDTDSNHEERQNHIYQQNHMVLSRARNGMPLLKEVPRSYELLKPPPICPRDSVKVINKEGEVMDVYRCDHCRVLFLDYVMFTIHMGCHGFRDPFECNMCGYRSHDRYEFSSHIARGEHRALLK
T4 sequence (Q96SW2 whole entry): as the sequence (Q96SW2 whole entry) above
T4 sequence (Q16531 whole entry partner): as the sequence (Q16531 whole entry partner) above
T3 sequence (Q9UKS7 whole entry): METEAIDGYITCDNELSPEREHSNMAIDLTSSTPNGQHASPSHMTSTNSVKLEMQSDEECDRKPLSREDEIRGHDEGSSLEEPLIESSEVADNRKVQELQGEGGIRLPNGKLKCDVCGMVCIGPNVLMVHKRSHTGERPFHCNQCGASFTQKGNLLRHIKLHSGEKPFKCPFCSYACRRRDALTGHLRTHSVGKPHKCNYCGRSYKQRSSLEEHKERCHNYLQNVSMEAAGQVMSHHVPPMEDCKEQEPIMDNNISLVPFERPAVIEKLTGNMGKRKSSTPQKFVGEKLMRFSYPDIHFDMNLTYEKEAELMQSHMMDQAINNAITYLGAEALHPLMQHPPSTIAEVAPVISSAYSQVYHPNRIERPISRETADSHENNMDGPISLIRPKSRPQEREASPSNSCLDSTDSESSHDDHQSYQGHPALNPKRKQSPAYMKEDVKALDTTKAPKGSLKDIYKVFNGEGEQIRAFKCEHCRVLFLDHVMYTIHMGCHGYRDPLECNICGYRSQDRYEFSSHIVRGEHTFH
T3 sequence (Q96SW2 whole entry): as the sequence (Q96SW2 whole entry) above
T3 sequence (Q16531 whole entry partner): as the sequence (Q16531 whole entry partner) above
T6 sequence (Q96SW2 whole entry): as the sequence (Q96SW2 whole entry) above
T2 sequence (Q13422 whole entry): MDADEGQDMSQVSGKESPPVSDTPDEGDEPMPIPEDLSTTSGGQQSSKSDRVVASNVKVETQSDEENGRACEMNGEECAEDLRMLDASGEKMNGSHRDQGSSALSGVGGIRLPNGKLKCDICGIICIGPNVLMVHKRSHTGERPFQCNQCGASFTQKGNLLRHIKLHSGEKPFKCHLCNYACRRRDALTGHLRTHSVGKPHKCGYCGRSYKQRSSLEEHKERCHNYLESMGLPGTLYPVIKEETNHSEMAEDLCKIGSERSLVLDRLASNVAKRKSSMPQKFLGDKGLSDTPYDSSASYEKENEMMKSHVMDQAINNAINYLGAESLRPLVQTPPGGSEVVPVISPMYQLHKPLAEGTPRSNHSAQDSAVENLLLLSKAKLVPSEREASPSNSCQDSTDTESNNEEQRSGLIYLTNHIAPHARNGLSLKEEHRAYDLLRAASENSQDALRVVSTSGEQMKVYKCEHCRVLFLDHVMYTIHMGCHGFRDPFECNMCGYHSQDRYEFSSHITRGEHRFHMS
T2 sequence (Q96SW2 whole entry): as the sequence (Q96SW2 whole entry) above
T2 sequence (Q16531 whole entry partner): as the sequence (Q16531 whole entry partner) above

`O=C1CCC(N2Cc3cc(CN4CCN(C(c5ccc(F)cc5)c5ccc(F)cc5)CC4)ccc3C2=S)C(=O)N1` (centres unmarked) [GT-07736, 3-(5-((4-(bis(4-fluorophenyl)methyl)piperazin-1-yl)methyl)-1-thioxoisoindolin-2-yl)piperidine-2,6-dione]: at CK1α, the “CK1α substrate protein remaining %” value was “B (80%< substrate protein remaining %≤ 100%)”. Besides, the “IKZF 1 substrate protein remaining %” value at IKZF1 is on record as “A (0% ≤ substrate protein remaining % ≤ 80%)”. Moreover, on IKZF2, the “IKZF2 substrate protein remaining %” value was “B (80%< substrate protein remaining %≤ 100%)”. At IKZF3, the “IKZF3 substrate protein remaining %” value is on record as “A (0% ≤ substrate protein remaining % ≤ 80%)”. Further, at WEE1, the “Wee1 substrate protein remaining %” value is reported as “A (0% ≤ substrate protein remaining % ≤ 80%)”. In the assay on GSPT1, the “GSPT1 substrate protein remaining %” value is on record as “A (0% ≤ substrate protein remaining % ≤ 80%)”. Besides, the inhibition at 0.5 µM in assay [1] lay in the range of 20 to 30%; in assay [2] it was 80 to 100%; in assay [3], 40 to 50%; in [4] it was 40 to 60%. Besides, in assay [1], the inhibition at 2 µM was 60 to 80%. Moreover, the inhibition at 0.01 µM in assay [2] lay within 10 to 20%; in assay [3], 10 to 20%; in [4] it was 10 to 18%.

Regarding `O=C1CCC(N2Cc3cc(CN4C5CCC4CN(c4cccc(Cl)c4Cl)C5)ccc3C2=S)C(=O)N1` (centres unmarked) [GT-08480, 3-(5-((3-(2,3-dichlorophenyl)-3,8-diazabicyclo[3.2.1]octan-8-yl)methyl)-1-thioxoisoindolin-2-yl)piperidine-2,6-dione], at CK1α, the “CK1α substrate protein remaining %” value was “B (80%< substrate protein remaining %≤ 100%)”. The “IKZF 1 substrate protein remaining %” value on IKZF1 was “B (80%< substrate protein remaining %≤ 100%)”. In addition, the “IKZF2 substrate protein remaining %” value at IKZF2 is “B (80%< substrate protein remaining %≤ 100%)”. The “IKZF3 substrate protein remaining %” value at IKZF3 is on record as “B (80%< substrate protein remaining %≤ 100%)”. Moreover, the “Wee1 substrate protein remaining %” value on WEE1 was “B (80%< substrate protein remaining %≤ 100%)”. The “GSPT1 substrate protein remaining %” value in the assay with GSPT1 is listed as “A (0% ≤ substrate protein remaining % ≤ 80%)”. In addition, the inhibition at 0.5 µM lay within 40 to 53% in assay [1], 80 to 100% in assay [2], 80 to 100% in assay [3] and 80 to 100% in assay [4]. In addition, the inhibition at 2 µM in assay [1] was in the range of 80 to 100%. For the same compound, the inhibition at 0.01 µM in assay [2] lay in the range of 20 to 30%; in assay [3], 0 to 5%; in assay [4], 25 to 30%.

On to `O=C1CCC(N2Cc3cc(CN4CCC(c5nccc(Cl)c5Cl)CC4)ccc3C2=S)C(=O)N1` (centres unmarked) [GT-08488, 3-(5-((4-(3,4-dichloropyridin-2-yl)piperidin-1-yl)methyl)-1-thioxoisoindolin-2-yl)piperidine-2,6-dione], for which the “CK1α substrate protein remaining %” value at CK1α is “B (80%< substrate protein remaining %≤ 100%)”. The “IKZF 1 substrate protein remaining %” value on IKZF1 is “B (80%< substrate protein remaining %≤ 100%)”. For the same compound, at IKZF2, the “IKZF2 substrate protein remaining %” value is “B (80%< substrate protein remaining %≤ 100%)”. The “IKZF3 substrate protein remaining %” value on IKZF3 is “B (80%< substrate protein remaining %≤ 100%)”. Also, at WEE1, the “Wee1 substrate protein remaining %” value is “B (80%< substrate protein remaining %≤ 100%)”. In addition, the “GSPT1 substrate protein remaining %” value in the assay with GSPT1 was “A (0% ≤ substrate protein remaining % ≤ 80%)”. The inhibition at 0.5 µM in assay [1] lay in the range of 60 to 80%; in [3], 70 to 80%; in assay [4] it was 80 to 100%. Besides, the inhibition at 2 µM in assay [1] lay in the range of 80 to 100%. For the same compound, the inhibition at 0.01 µM was 10 to 20% in assay [2], 10 to 20% in [3] and 18 to 25% in assay [4]. The “Inhibition Rate at 500 nM (%)” value in [2] (MM.1S, 500 nM, 96 hours) is “la8”.

For the compound `Cc1ccc(N2CCN(Cc3ccc4c(c3)CN(C3CCC(=O)NC3=O)C4=S)CC2)cc1` (centres unmarked) [GT-08603, 3-(1-thioxo-5-((4-(p-tolyl)piperazin-1-yl)methyl)isoindolin-2-yl)piperidine-2,6-dione], at CK1α, the “CK1α substrate protein remaining %” value is “B (80%< substrate protein remaining %≤ 100%)”. Also, the “IKZF 1 substrate protein remaining %” value at IKZF1 is on record as “B (80%< substrate protein remaining %≤ 100%)”. In addition, the “IKZF2 substrate protein remaining %” value on IKZF2 was “B (80%< substrate protein remaining %≤ 100%)”. Moreover, the “IKZF3 substrate protein remaining %” value at IKZF3 is listed as “B (80%< substrate protein remaining %≤ 100%)”. At WEE1, the “Wee1 substrate protein remaining %” value is reported as “B (80%< substrate protein remaining %≤ 100%)”. Further, the “GSPT1 substrate protein remaining %” value in the assay with GSPT1 is reported as “A (0% ≤ substrate protein remaining % ≤ 80%)”. In addition, the inhibition at 0.5 µM in [1] lay in the range of 53 to 60%; in assay [2] it was 50 to 60%; in [3] it was 40 to 50%; in assay [4], 80 to 100%. For the same compound, the inhibition at 2 µM in [1] lay within 80 to 100%. Moreover, the values for the inhibition at 0.01 µM in assay [2], in assay [3] and in assay [4] were 30 to 40%, 0 to 5% and 40 to 60%, respectively.

With `O=C1CCC(N2Cc3cc(CN4CCN(c5cc(Cl)ccc5Cl)CC4)ccc3C2=S)C(=O)N1` (centres unmarked) [GT-08611, 3-(5-((4-(2,5-dichlorophenyl)piperazin-1-yl)methyl)-1-thioxoisoindolin-2-yl)piperidine-2,6-dione], the “CK1α substrate protein remaining %” value at CK1α was “B (80%< substrate protein remaining %≤ 100%)”. Also, the “IKZF 1 substrate protein remaining %” value at IKZF1 is reported as “B (80%< substrate protein remaining %≤ 100%)”. Further, at IKZF2, the “IKZF2 substrate protein remaining %” value is “B (80%< substrate protein remaining %≤ 100%)”. Also, the “IKZF3 substrate protein remaining %” value at IKZF3 is listed as “B (80%< substrate protein remaining %≤ 100%)”. In addition, the “Wee1 substrate protein remaining %” value at WEE1 was “B (80%< substrate protein remaining %≤ 100%)”. Moreover, in the assay with GSPT1, the “GSPT1 substrate protein remaining %” value is “A (0% ≤ substrate protein remaining % ≤ 80%)”. Further, the inhibition at 0.5 µM in assay [1] is 30 to 40%; in [2], 50 to 60%; in [3], 70 to 80%; in [4], 80 to 100%. In addition, the inhibition at 2 µM in assay [1] was in the range of 60 to 80%. Also, the inhibition at 0.01 µM lay within 20 to 30% in [2], 0 to 5% in assay [3] and 18 to 25% in assay [4].

With `O=C1CCC(N2Cc3cc(CN4CCC(c5ccccc5)CC4)ccc3C2=S)C(=O)N1` (centres unmarked) [GT-08616, 3-(5-((4-phenylpiperidin-1-yl)methyl)-1-thioxoisoindolin-2-yl)piperidine-2,6-dione], the “CK1α substrate protein remaining %” value at CK1α is “B (80%< substrate protein remaining %≤ 100%)”. Moreover, the “IKZF 1 substrate protein remaining %” value at IKZF1 was “B (80%< substrate protein remaining %≤ 100%)”. In addition, on IKZF2, the “IKZF2 substrate protein remaining %” value is given as “B (80%< substrate protein remaining %≤ 100%)”. Further, on IKZF3, the “IKZF3 substrate protein remaining %” value is on record as “B (80%< substrate protein remaining %≤ 100%)”. Also, the “Wee1 substrate protein remaining %” value on WEE1 is reported as “B (80%< substrate protein remaining %≤ 100%)”. Moreover, in the assay with GSPT1, the “GSPT1 substrate protein remaining %” value is recorded as “A (0% ≤ substrate protein remaining % ≤ 80%)”. The inhibition at 0.5 µM in assay [1] lay within 53 to 60%; in assay [2], 50 to 60%; in assay [3] it was 40 to 50%; in [4], 60 to 80%. The inhibition at 2 µM in [1] was in the range of 80 to 100%. Also, the inhibition at 0.01 µM is 20 to 30% in [2], 10 to 20% in assay [3] and -5 to 0% in [4].

For the compound `O=C1CCC(N2Cc3cc(CN4CCC(c5ccccc5C(F)(F)F)CC4)ccc3C2=S)C(=O)N1` (centres unmarked) [GT-08622, 3-(1-thioxo-5-((4-(2-(trifluoromethyl)phenyl)piperidin-1-yl)methyl)isoindolin-2-yl)piperidine-2,6-dione], on CK1α, the “CK1α substrate protein remaining %” value is “B (80%< substrate protein remaining %≤ 100%)”. Further, the “IKZF 1 substrate protein remaining %” value on IKZF1 was “B (80%< substrate protein remaining %≤ 100%)”. The “IKZF2 substrate protein remaining %” value at IKZF2 is “A (0% ≤ substrate protein remaining % ≤ 80%)”. The “IKZF3 substrate protein remaining %” value at IKZF3 was “B (80%< substrate protein remaining %≤ 100%)”. Also, at WEE1, the “Wee1 substrate protein remaining %” value is on record as “B (80%< substrate protein remaining %≤ 100%)”. The “GSPT1 substrate protein remaining %” value in the assay on GSPT1 is “A (0% ≤ substrate protein remaining % ≤ 80%)”. For the same compound, the inhibition at 0.5 µM in assay [1] lay within 40 to 53%; in assay [2], 70 to 80%; in assay [3], 80 to 100%; in assay [4], 80 to 100%. The inhibition at 2 µM in assay [1] is 80 to 100%. Moreover, the inhibition at 0.01 µM is 10 to 20% in [2], -5 to 0% in assay [3] and 10 to 18% in assay [4].

What is called inhibition is the relative decrease from the control value, in per cent.
